Assay results as given in patent publication US9850276B2, “Bidentate-binding modulators of LRRK2 and JNK kinases” (THE SCRIPPS RESEARCH INSTITUTE, priority 2013, dated 2017).
Where “and” joins values, the source holds several entries; their conditions need not be identical. Identical values can stand only once. Like-named read-outs stand apart in the source and are kept apart here. Where a SMILES comes first, the peptide text is derived from it. The star is where a group is joined. X1 = O=C(NCCCCN*)c1ccc(-c2n[nH]c3ccccc23)cc1; X2 = O=C(NCCCN*)c1ccc(-c2n[nH]c3ccccc23)cc1

Columns and labels:
JNK3 = JNK3 (Homo sapiens, UniProt P53779); assay: JNK3 enzyme activity assay; format: biochemical; settings: 2-3 determinations; SP600125 from 10 measurements; * n = 2-4
JNK3 39-422 = target: T1, JNK3 39-422 (Homo sapiens, UniProt P53779); assay: JIP FP displacement assay (TAMRA-JIP-11-mer peptide, fluorescence polarization); format: binding; settings: 2-3 determinations; * n = 2-4
T1 construct: with JNK3 39-422 and measuring fluorescence polarization (FP) changes
Excerpt: The biochemical assay for JIP displacement is centered on utilizing a TAMRA-JIP-11-mer peptide (TAMRA-RPKRPTTLNLF) with JNK3 39-422 and measuring fluorescence polarization (FP) changes in the presence and absence of small molecule inhibitors. This assay has been established in 96-well and 384-well format in our labs. Unlabeled JIP-peptide (RPKRPTTLNLF, SEQ ID:1) and compound 2 were used as positive controls.

[1] = test system: c-jun phosphorylation in H9C2 cardiomyocyte cells; assay: In-cell Western detection of c-Jun phosphorylation; format: cell-based; settings: for IC50: n = 4, read-out: Cell-based p-c-Jun inhibition (IC50)
Description: The IC50 was calculated to be 2.8±0.5 μM. Standard error is given.
(§1) To analyze the cell activity of compound 6 and its analogs an In-cell Western detection assay was set up where phosphorylation of c-Jun was monitored. […] This finding was corroborated by Western blot analysis in H9C2 and N2a cells (FIG. 7). Considering the reasonably high biochemical kinase selectivity (coupled with its low μM cell potency), compound 6 is believed to be a good in vitro probe molecule for studying the biology and the signal pathways related to JNK/LRRK2 (and mutant LRRK2s).
Table 2, above, presents the inhibition of c-Jun phosphorylation in H9c2 cells for six JNK bidentate inhibitors, compounds 5, 6, 9, 10, 12, and 13.

JNK1 = JNK1 (Homo sapiens, UniProt P45983); assay: JNK1 enzyme assay; format: biochemical; settings: 2-3 determinations; SP600125 from 10 measurements
[2] = test system: SHSY5Y cells transfected with LRRK2:G2019S; assay: LRRK2:G2019S-induced decrease in mitochondrial membrane potential; format: cell-based, human; settings: 10 μM compound
Excerpt: (§2) FIGS. 5A, 5B, and 5C, depict the results of assays to determine the protection of LRRK2:G2019S-induced mitochondrial dysfunction and cell death by compound 6. Significance between LRRK2:WT and LRRK2:G2019S are indicated by a single asterisk (p<0.05) (*), while differences between cells expressing LRRK2:G2019S and compound 6 treated cells expressing LRRK2:G2019S are indicated by a double asterisk (p<0.05) (**). Error bars denote standard deviation.
(§3) We next tested if compound 6 was potent in cell-based functional assays that measured reactive oxygen species (ROS) generation, mitochondrial membrane potential (MMP), and cell viability. We had previously shown that JNK inhibition had significant effects on all of these mitochondrial functional parameters in HeLa cells. FIG. 5 presents the effects that compound 6 had on all of these measures in the human dopaminergic SHSY5Y cell line. […] Finally, LRRK2:G2019S-induced cell loss was measured showing ˜50% less viable cells (FIG. 5C). In the presence of 10 μM compound 6, cell viability returned to >95% (p<0.05).

[3] = test system: SHSY5Y cells transfected with LRRK2:G2019S; assay: LRRK2:G2019S-induced cell loss (cell viability); format: cell-based; settings: Homo sapiens, SH-SY5Y; 10 μM compound; p<0.05
Excerpt: as §2, §3

[4] = test system: c-jun phosphorylation in H9C2 and N2a cells; assay: Western blot analysis of c-jun phosphorylation; format: cell-based
Excerpt: as §1

wild-type LRRK2 = wild-type LRRK2 (Homo sapiens, UniProt Q5S007); assay: LRRK2 enzyme assay (titration); format: biochemical
Excerpt: (§4) Strong inhibition of LRRK2 by compound 6 was also found.

LRRK2-G2019S = LRRK2-G2019S (Homo sapiens, UniProt Q5S007, G2019S); assay: LRRK2-G2019S enzyme assay (titration); format: biochemical
Excerpt: as §4

96 kinases = assay: Ambit binding screen; settings: 10 μM
Description: To augment this we screened an additional 96 kinases at 10 μM in the Ambit binding screen to get a broader sense for the selectivity of this compound. […] Since minimal SAR optimizations have been made on this probe molecule it is believed that high selectivity for this class of inhibitors could easily be achieved by exploiting the bidentate binding character of this class.

CLK1 = CLK1 (Homo sapiens, UniProt P49759); assay: Enzyme inhibition profiling, panel of 21 kinases; format: biochemical
JNKs = assay: Enzyme inhibition profiling, panel of 21 kinases; format: biochemical; settings: 10 μM inhibitor concentration
JNK3α1 = JNK3α1 (Homo sapiens, UniProt P53779); assay: ATP competitive binding / mechanism of inhibition studies; format: biochemical; settings: eight concentrations of compound; p<0.05
Excerpt: (A) Non-linear least squares fitting of the data using an equation for competitive inhibition at eight concentrations of compound 6. (B) Double reciprocal plots and linear regression of the data shown in A.
The detection method in the JNK3 enzyme assay allows for the detection of a compound that inhibits by a variety of mechanisms including: substrate-site binding, allosteric site binding, and ATP-competitive binding. […] However, if the inhibition of kinase activity by 6 was only through substrate site binding, its IC50 value in JNK3 activity assay should be similar to that in JIP displacement assay. […] One possible interaction besides JIP site binding was ATP hinge binding because the head indazole moiety is a well-known hinge binder.

[5] = test system: SHSY5Y cells transfected with LRRK2:G2019S; assay: LRRK2:G2019S-induced ROS generation (Mitosox fluorescence); format: cell-based, human; settings: 1 μM or 10 μM compound; p<0.05
Excerpt: as §2, §3

LRRK2 = LRRK2 (Homo sapiens, UniProt Q5S007); assay: Enzyme inhibition profiling, panel of 21 kinases; format: biochemical; settings: 10 μM inhibitor concentration
[6] = test system: infarct size in rat hearts; assay: I/R MI rat model, 30 minutes ischemia and 24 hours reperfusion; format: in vivo; settings: 40 mg/kg 3-aminobenzamide; p=0.048
Description: The in vivo efficacy of SR-3306 in anesthetized rats after 30 minutes ischemia and 24 hours reperfusion was evaluated.

[7] = Rattus norvegicus, H9c2, H9c2 cells

T1 sequence (P53779 39-422 isoform P53779-2): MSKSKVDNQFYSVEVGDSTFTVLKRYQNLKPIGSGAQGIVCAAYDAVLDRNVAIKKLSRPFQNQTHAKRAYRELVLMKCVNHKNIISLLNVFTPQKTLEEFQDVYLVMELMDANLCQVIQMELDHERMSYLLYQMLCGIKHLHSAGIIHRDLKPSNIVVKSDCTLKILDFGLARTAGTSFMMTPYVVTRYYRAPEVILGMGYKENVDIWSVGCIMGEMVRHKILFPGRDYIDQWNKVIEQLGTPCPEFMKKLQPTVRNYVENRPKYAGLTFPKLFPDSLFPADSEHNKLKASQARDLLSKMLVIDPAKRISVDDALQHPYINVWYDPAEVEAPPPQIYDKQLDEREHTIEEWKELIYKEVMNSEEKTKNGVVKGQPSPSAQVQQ
Sequence of JNK1 (P45983 whole entry): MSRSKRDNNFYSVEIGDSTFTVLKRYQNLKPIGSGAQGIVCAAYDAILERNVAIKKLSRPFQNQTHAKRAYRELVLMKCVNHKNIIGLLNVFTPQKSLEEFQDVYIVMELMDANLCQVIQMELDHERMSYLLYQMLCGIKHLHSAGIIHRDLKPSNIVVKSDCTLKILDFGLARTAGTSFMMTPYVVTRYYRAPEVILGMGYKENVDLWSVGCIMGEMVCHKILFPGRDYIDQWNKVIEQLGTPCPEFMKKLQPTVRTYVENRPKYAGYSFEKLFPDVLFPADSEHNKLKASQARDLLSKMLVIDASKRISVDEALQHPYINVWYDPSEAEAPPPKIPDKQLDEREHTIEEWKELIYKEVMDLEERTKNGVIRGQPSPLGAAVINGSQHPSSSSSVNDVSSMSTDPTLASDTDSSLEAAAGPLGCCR
Sequence of wild-type LRRK2 (Q5S007 whole entry): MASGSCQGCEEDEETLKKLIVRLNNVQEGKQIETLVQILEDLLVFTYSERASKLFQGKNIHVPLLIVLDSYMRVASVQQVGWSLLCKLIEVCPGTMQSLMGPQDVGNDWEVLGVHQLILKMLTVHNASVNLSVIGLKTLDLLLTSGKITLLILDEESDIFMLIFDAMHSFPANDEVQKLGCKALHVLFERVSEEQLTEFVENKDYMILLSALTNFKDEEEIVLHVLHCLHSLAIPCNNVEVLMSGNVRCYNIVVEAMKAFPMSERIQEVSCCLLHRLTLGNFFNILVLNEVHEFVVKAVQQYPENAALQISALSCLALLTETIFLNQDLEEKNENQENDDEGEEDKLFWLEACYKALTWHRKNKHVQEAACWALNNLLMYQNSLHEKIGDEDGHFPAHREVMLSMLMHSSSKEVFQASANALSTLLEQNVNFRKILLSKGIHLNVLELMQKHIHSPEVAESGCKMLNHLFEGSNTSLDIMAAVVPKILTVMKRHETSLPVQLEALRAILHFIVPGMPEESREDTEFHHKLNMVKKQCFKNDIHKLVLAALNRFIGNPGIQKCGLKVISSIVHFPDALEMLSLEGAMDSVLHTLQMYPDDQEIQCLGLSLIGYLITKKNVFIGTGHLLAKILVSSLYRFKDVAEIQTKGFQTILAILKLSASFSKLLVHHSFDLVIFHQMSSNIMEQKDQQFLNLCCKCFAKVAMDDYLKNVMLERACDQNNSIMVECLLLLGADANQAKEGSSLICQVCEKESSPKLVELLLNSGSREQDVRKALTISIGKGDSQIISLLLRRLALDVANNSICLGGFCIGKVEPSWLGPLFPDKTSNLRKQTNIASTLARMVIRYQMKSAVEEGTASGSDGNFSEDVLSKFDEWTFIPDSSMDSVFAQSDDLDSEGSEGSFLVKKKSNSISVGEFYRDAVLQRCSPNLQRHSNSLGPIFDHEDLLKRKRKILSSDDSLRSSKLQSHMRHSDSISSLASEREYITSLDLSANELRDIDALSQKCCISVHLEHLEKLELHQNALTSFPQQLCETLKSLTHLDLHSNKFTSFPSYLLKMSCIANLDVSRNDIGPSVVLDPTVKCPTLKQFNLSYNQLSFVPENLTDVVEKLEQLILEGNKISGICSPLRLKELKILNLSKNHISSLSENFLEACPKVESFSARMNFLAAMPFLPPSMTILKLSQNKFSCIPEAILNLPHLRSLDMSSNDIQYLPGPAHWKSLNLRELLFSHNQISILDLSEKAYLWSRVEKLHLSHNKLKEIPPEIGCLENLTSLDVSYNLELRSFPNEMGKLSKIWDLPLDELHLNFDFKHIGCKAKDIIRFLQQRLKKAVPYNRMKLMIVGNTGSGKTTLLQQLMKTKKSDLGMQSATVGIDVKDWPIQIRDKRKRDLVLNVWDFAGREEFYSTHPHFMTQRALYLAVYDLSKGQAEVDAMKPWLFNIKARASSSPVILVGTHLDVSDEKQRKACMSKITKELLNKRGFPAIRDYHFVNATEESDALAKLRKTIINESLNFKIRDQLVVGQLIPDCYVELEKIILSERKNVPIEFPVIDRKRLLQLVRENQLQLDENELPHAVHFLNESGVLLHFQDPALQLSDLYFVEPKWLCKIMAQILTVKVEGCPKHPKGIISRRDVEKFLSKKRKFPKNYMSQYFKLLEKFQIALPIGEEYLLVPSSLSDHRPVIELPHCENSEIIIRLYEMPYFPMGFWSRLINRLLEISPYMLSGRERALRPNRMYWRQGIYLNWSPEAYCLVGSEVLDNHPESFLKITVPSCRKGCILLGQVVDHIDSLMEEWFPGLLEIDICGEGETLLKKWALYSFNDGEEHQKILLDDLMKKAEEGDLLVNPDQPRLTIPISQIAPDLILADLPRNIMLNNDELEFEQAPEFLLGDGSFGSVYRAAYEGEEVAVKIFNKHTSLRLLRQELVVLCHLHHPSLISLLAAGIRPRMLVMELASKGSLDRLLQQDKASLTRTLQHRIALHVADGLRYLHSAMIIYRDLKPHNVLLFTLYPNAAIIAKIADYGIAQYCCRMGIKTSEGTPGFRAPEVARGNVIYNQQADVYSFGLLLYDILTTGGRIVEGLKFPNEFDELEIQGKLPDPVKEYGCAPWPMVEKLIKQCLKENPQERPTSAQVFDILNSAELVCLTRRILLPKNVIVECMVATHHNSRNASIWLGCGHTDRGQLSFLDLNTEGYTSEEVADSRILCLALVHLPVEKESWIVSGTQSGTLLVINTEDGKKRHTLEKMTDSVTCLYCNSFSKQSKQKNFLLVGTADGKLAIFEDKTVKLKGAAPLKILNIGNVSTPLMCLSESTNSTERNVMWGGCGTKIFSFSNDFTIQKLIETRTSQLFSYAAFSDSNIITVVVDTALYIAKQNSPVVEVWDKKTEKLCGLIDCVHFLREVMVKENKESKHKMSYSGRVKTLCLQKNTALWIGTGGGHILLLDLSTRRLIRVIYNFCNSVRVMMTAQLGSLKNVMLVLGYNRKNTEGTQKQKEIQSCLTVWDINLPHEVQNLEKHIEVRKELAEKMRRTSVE
Sequence of JNK3 (P53779 1-422 isoform P53779-2): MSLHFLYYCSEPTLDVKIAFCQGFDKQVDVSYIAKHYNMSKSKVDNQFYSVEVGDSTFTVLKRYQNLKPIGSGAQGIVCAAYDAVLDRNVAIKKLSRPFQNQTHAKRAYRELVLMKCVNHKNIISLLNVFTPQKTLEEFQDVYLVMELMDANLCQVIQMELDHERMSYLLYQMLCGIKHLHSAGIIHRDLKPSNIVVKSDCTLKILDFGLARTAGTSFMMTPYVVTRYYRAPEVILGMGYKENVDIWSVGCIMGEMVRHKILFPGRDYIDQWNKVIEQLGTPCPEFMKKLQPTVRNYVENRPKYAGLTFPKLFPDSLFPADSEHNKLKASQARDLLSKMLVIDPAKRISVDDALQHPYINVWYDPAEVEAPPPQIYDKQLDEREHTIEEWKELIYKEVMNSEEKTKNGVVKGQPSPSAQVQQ
Sequence of LRRK2-G2019S (Q5S007 whole entry G2019S): as the sequence (Q5S007 whole entry) above, with G2019S counted along it
Sequence of CLK1 (P49759 whole entry): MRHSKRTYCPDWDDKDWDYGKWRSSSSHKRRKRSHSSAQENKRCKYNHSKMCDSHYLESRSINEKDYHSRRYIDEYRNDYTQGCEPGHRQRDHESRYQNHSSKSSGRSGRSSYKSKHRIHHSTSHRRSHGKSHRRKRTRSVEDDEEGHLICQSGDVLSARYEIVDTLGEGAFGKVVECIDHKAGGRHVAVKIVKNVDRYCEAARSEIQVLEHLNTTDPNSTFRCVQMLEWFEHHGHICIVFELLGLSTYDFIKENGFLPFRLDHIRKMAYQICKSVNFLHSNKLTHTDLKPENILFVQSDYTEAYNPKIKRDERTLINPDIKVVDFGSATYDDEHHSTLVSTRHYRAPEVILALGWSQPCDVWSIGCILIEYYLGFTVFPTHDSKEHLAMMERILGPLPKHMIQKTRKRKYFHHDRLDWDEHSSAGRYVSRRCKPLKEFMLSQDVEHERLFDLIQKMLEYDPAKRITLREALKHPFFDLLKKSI
Sequence of LRRK2 (Q5S007 whole entry, the tested form may be a part): as the sequence (Q5S007 whole entry) above
Sequence of JNK3α1 (P53779 1-422 isoform P53779-2): as the sequence (P53779 1-422 isoform P53779-2) above

SMILES	IC50 (JNK3)	IC50 (JNK3 39-422)	IC50 [1, 7]	IC50 (JNK1)	other results
CC(C)CN(CC(=O)NCCCCNC(=O)c1ccc(-c2n[nH]c3ccccc23)cc1)CC(C)C [Compound 13]	374 ± 227 nM	1730 ± 635 nM	9600 ± 3000 nM		
CC(C)CN(CC(=O)NCCCCCCNC(=O)c1ccc(-c2n[nH]c3ccccc23)cc1)C(=O)CNC(=O)C1COc2ccccc2O1 (centres unmarked) [Compound 5, N-(2-((2-((6-(4-(1H-indazol-3-yl)benzamido)hexyl)amino)-2-oxoethyl)(isobutyl)amino)-2-oxoethyl)-2,3-dihydrobenzo[b][1,4]dioxine-2-carboxamide]	63.4 ± 10.4 nM	363 nM	37400 ± 22300 nM	164 ± 21.7 nM	
COc1ccc2c(c1)CC(C(=O)N[C@@H](C)C(=O)N(CC(=O)NCCCCCCNC(=O)c1ccc(-c3n[nH]c4ccccc34)cc1)CC(C)C)CO2 (stereo partly drawn) [Compound 7, N—((S)-1-((2-((6-(4-(1H-indazol-3-yl)benzamido)hexyl)amino)-2-oxoethyl)(isobutyl)amino)-1-oxopropan-2-yl)-6-methoxychroman-3-carboxamide]	127 ± 30.3 nM	1050 nM		154 ± 37.1 nM	
CC(C)CN(CCCCCCNC(=O)c1ccc(-c2n[nH]c3ccccc23)cc1)C(=O)c1ccc2c(c1)OCCO2 [Compound 11]	86 ± 37 nM	781 ± 7 nM			
COc1ccc2c(c1)CC(C(=O)NCC(=O)N(CC(=O)NCCCCCCNC(=O)c1ccc(-c3n[nH]c4ccccc34)cc1)CC(C)C)CO2 (centres unmarked) [Compound 6, N-(2-((2-((6-(4-(1H-indazol-3-yl)benzamido)hexyl)amino)-2-oxoethyl)(isobutyl)amino)-2-oxoethyl)-6-methoxychroman-3-carboxamide]	12 nM and 11.6 nM	336 nM and ~336 nM	2800 ± 500 nM	109 ± 6.1 nM	protection against decrease in MMP [2]: returned MMP dissipation to untreated levels; viability at 10 µM [3]: > 95%; c-jun phosphorylation by Western blot [4]: inhibition of the c-jun phorphorylation; IC50 (wild-type LRRK2; read-out: wild-type LRRK2 IC50): 118 nM and ~100 nM; IC50 (LRRK2-G2019S): 99 nM and ~100 nM; number of the 96 kinases with greater than 90% binding (96 kinases): six; share of kinases inhibited (96 kinases): ~5%; inhibition at 10 µM (CLK1; 10 μM inhibitor concentration): 50%; IC50 (CLK1; inferred from 50% inhibition at 10 μM): ~10000 nM; inhibition of JNKs (JNKs): ~100%; mechanism of inhibition versus ATP (JNK3α1): competitive inhibitor of ATP; ROS levels [5]: reduced the ROS levels in a statistically significant manner; inhibition at 10 µM (LRRK2): 94%; concentration from which c-Jun phosphorylation began to be inhibited significantly ([1]; H9C2 cells): ~100 nM
CC(=O)N[C@@H](CC(C)C)C(=O)N[C@@H](CC(N)=O)C(=O)N[C@@H](CC(C)C)C(=O)NCC(=O)NCCCCNC(=O)c1ccc(-c2n[nH]c3ccccc23)cc1 [Compound 3, (S)—N1-((S)-1-((2-((4-(4-(1H-indazol-3-yl)benzamido)butyl)amino)-2-oxoethyl)amino)-4-methyl-1-oxopentan-2-yl)-2-((S)-2-acetamido-4-methylpentanamido)succinamide] (Ac-LNLG-X1)	157 ± 162 nM	620 nM		318 ± 11.9 nM	
NC(=O)c1cccc(N)c1 [3-aminobenzamide]					infarct size (IS) [6]: 26±1.5 % of AAR
COc1ccc2c(c1)CC(C(=O)N(CC(=O)NCCCCNC(=O)c1ccc(-c3n[nH]c4ccccc34)cc1)CC(C)C)CO2 (centres unmarked) [Compound 9]	246 ± 227 nM	300 ± 187 nM	80400 ± 41400 nM		
CC(C)CN(CC(=O)NCCCCCCNC(=O)c1ccc(-c2n[nH]c3ccccc23)cc1)C(=O)CNC(=O)c1ccc2c(c1)OCCO2 [Compound 4, N-(2-((2-((6-(4-(1H-indazol-3-yl)benzamido)hexyl)amino)-2-oxoethyl)(isobutyl)amino)-2-oxoethyl)-2,3-dihydrobenzo[b][1,4]dioxine-6-carboxamide]	147 ± 51.6 nM	907 nM		685 ± 121 nM	
CC(C)CN(CC(=O)NCCCCNC(=O)c1ccc(-c2n[nH]c3ccccc23)cc1)C(=O)CNC(=O)c1cccc(Cl)c1 [Compound 12]	184 ± 38 nM	520 ± 170 nM	19800 ± 7800 nM		
CC(C)C[C@H](NC(=O)[C@H](CC(N)=O)NC(=O)[C@@H](N)CC(C)C)C(=O)NCC(=O)NCC(=O)NCCCNC(=O)c1ccc(-c2n[nH]c3ccccc23)cc1 [Compound 2] (H-LNLGG-X2)	136 ± 35.9 nM	624 nM			
COc1ccc2c(c1)CC(C(=O)NCC(=O)N(CC(=O)NCCCCCCNC(=O)c1ccc3[nH]ncc3c1)CC(C)C)CO2 (centres unmarked) [Compound 8, N-(6-(2-(N-isobutyl-2-(6-methoxychroman-3-carboxamido)acetamido)acetamido)hexyl)-1H-indazole-5-carboxamide]	3150 nM				
CC(C)CN(CC(=O)NCCCCNC(=O)c1ccc(-c2n[nH]c3ccccc23)cc1)C(=O)c1ccc2c(c1)OCCO2 [Compound 10]	65 nM	363 ± 272 nM	~1000 nM		IC50 (wild-type LRRK2; LRRK2 form not stated, only hit in profiling against 18 kinases at 10 μM, read-out: LRRK2 IC50): 80 nM; IC50 ([1]; H9c2 cells): 1400 ± 340 nM
CC(=O)N[C@@H](CC(C)C)C(=O)N[C@@H](CC(N)=O)C(=O)N[C@@H](CC(C)C)C(=O)NCC(=O)NCC(=O)NCCCNC(=O)c1ccc(-c2n[nH]c3ccccc23)cc1 [Compound 1] (Ac-LNLGG-X2)	37.8 ± 11.8 nM	760 nM			
